Reference: US20240083883A1, “RAD51 BINDING INHIBITORS AND METHODS OF USE THEREOF” (Sarissa Inc., priority 2020, published 2024)
Values joined by “and” are separate entries in the source; they are usually repeats but may differ in a detail not shown here. Identical values can stand only once. Like-named read-outs stand apart in the source and are kept apart here.

How the values were obtained:
[1] = Solubility comparison of RAD51 inhibitors; format: physicochemical; settings: for appearance of the 1 mM solution in H2O/DMSO: 1 mM in H2O/DMSO
Method: A comparison of the solubility of selected compounds of the present invention with known RAD51 inhibitors was carried out.
Aqueous samples of the mesylate salt were readily prepared and were suitable for testing in inhibition assays. Exemplary solutions were prepared as follows:
soluble in water−1.0 mg JKYN-1-mes+75.9 μl of water=20 mM (13.2 mg/ml)
Exemplary solutions were prepared as follows:
IBR2 was soluble in DMSO to at least 166.8 mM (66.7 mg/ml). Exemplary solutions were prepared as follows:
IBR120 is soluble in DMSO to at least 20 mM (7.77 mg/ml).

[2] = tested on: HEK293; assay: Proliferation assay, normal cell line surrogate HEK293; format: cell-based, human; settings: HEK293, single agent, 4 days
Method: (§1) Proliferation assays: Cells are maintained in minimum essential medium alpha plus 10% fetal bovine serum and penicillin (50 units/mL)/streptomycin (50 mg/L) (growth medium). Cultures are incubated in a humidified atmosphere of 5% CO2 at 37° C. Rapidly proliferating cells are used to establish cultures of experimental cells, which are allowed to adhere overnight in 96-well plates or 25-cm^2 flasks prior to manipulation.
(§2) Exposure to chemotherapy drugs and combinations thereof: Cells are grown in 96-well plates and treated with simultaneous exposure to a single drug or a combination of two drugs at the concentrations indicated. The relative cell density is determined after 4 days by viability staining (alamarBlue© or neutral red).
(§3) The relative density of cells treated with two agents is normalized to the density observed for a respectively treated “second agent” control. The concentration of drug that inhibits proliferation by 50% (IC50 value) is interpolated from plotted data. The change in the IC50 value of a chemotherapy drug caused by the presence of the second agent is determined as a percent of the IC50 of the first drug alone. […] This methodology, previously reported (Ferguson et al., 2009; Blake et al., 2017; Ferguson et al., 2018), provides a quantitative, concentration-dependent representation of the magnitude of the drug interaction. […]

[3] = tested on: CCD841; assay: Proliferation assay, normal cell line surrogate CCD841; format: cell-based, human; settings: CCD841, single agent, 4 days
Method: as §1, §2, §3

[4] = tested on: HK-2; assay: Proliferation assay, normal cell line surrogate HK-2; format: cell-based, human; settings: HK-2, single agent, 4 days
Method: as §1, §2, §3

[5] = tested on: normal cells; assay: Toxicity on normal cells (summary of the normal cell line surrogates); format: cell-based, human; settings: normal cell surrogates HEK293, CCD841, HK-2, read-out: toxicity (IC50) on normal cells, approximate
Method: as §1, §2
(§4) The relative density of cells treated with two agents is normalized to the density observed for a respectively treated “second agent” control. The concentration of drug that inhibits proliferation by 50% (IC50 value) is interpolated from plotted data. The change in the IC50 value of a chemotherapy drug caused by the presence of the second agent is determined as a percent of the IC50 of the first drug alone. Enhancement of cytotoxicity is indicated by a decrease in the IC50 value. This methodology, previously reported (Ferguson et al., 2009; Blake et al., 2017; Ferguson et al., 2018), provides a quantitative, concentration-dependent representation of the magnitude of the drug interaction.
FIG. 23 graphically depicts the toxicity effect on normal (not fully tumorigenic) cell line surrogates resulting from exposure to JKYN-1 (base). The cell line surrogates include: HEK293 (human embryonic kidney transformed with adenovirus 5 DNA); CCD841 (human embryonic colonic epithelial, untransformed); and HK-2 (human kidney proximal tubule, papilloma).

[6] = tested on: pancreatic cancer cell line (PANC-1); assay: Proliferation assay, PANC-1; format: cell-based; settings: for inhibition of proliferation compared with IBR120: range of concentrations
Method: as §1, §2, §4

[7] = tested on: NSCLC cell line A549b; assay: Proliferation assay, A549b; format: cell-based; settings: for inhibition of proliferation compared with IBR120: range of concentrations
Method: as §1, §2, §4

[8] = background section; cited from earlier work
[9] = tested on: most tested cancer cell lines; settings: cited from earlier work
[10] = tested on: NSCLC cell line H1650; assay: Proliferation assay, NSCLC cell line H1650; format: cell-based
Method: as §1, §2, §4

[11] = tested on: prostate carcinoma cell line LNCaP; assay: Proliferation assay, LNCaP; format: cell-based
Method: as §1, §2, §4

[12] = tested on: MCF-7 breast carcinoma cell line; assay: Proliferation assay, MCF-7; format: cell-based
Method: as §1, §2, §4

[13] = tested on: N87 stomach carcinoma cell line; assay: Proliferation assay, N87; format: cell-based
Method: as §1, §2, §4

[14] = tested on: MDA-MB-231; assay: Proliferation assay, MDA-MB-231; format: cell-based; settings: Homo sapiens; MDA-MB-231, single agent
Method: as §1, §2
(§5) The relative density of cells treated with two agents is normalized to the density observed for a respectively treated “second agent” control. The concentration of drug that inhibits proliferation by 50% (IC50 value) is interpolated from plotted data. The change in the IC50 value of a chemotherapy drug caused by the presence of the second agent is determined as a percent of the IC50 of the first drug alone. […] This methodology, previously reported (Ferguson et al., 2009; Blake et al., 2017; Ferguson et al., 2018), provides a quantitative, concentration-dependent representation of the magnitude of the drug interaction.

[15] = tested on: DU145 prostate carcinoma cell line; assay: Proliferation assay, DU145; format: cell-based
Method: as §1, §2, §5

CN1CCN(c2ccc(-c3ccc4c(c3)[C@H](c3c[nH]c5ccccc35)N(S(=O)(=O)Cc3ccccc3)C4)cc2)CC1 [Compound 1, (R)-3-(2-(Benzylsulfonyl)-6-(4-(4-methylpiperazin-1-yl)phenyl)isoindolin-1-yl)-1H-indole]
solubility in water at 10 mg/ml [1]: not very soluble in water | appearance of the 1 mM solution in H2O/DMSO [1]: less cloudy than 1 mM IBR120 | IC50 ([2]; Homo sapiens, HEK293, 96 h): 4.16 µM | IC50 ([3]; Homo sapiens, CCD-841, 96 h): 5.71 µM | IC50 ([4]; Homo sapiens, HK-2, 96 h): 3.92 µM | IC50 ([5]; listed as JKYN-1): 4 to 6 µM | inhibition of proliferation compared with IBR120 ([6]; PANC-1, single agent): superior activity | inhibition of proliferation compared with IBR120 ([7]; single agent): superior activity

O=S(=O)(Cc1ccccc1)N1C=Cc2ccccc2C1c1c[nH]c2ccccc12 (centres unmarked) [IBR2]
appearance of the 1 mM solution in H2O/DMSO [1]: slightly cloudy | solubility in DMSO [1]: at least 166.8 mM and ≥ 66.7 mg/ml | upper limit of solubility in H2O/DMSO ([1]; H2O/DMSO): ~1000 µM | appearance of the 1 mM H2O/DMSO solution diluted 1:10 or more in water [1]: clear | solubility in water ([1]; water): insoluble in water | aqueous solubility (background statement) [8]: low aqueous solubility | IC50 [9]: 12 to 20 µM

CN1CCN(c2ccc(-c3ccc4c(c3)[C@H](c3c[nH]c5ccccc35)N(S(=O)(=O)Cc3ccccc3)C4)cc2)CC1.CS(=O)(=O)O [JKYN-1-mesylate, (R)-3-(2-(Benzylsulfonyl)-6-(4-(4-methylpiperazin-1-yl)phenyl)isoindolin-1-yl)-1H-indole, Mesylate Salt]
solubility in water [1]: highly soluble in water | solubility ([1]; water, thermodynamic from solid): ≥ 13200 µg/mL and ≥ 20000 µM | IC50 ([2]; Mesylate Salt): 2.89 µM | IC50 ([3]; Mesylate Salt): 3.68 µM | IC50 ([4]; Mesylate Salt): 3.42 µM | IC50 ([5]; Homo sapiens): 3 to 4 µM | IC50 ([5]; Mesylate Salt): 3 to 4 µM | decrease of the IC50 value of osimertinib ([10]; H1650, combination with osimertinib): up to 75% | combination effect with osimertinib ([10]; H1650, range of concentrations): synergistic effect | IC50 ([10]; H1650, single agent, Mesylate Salt, read-out: IC50): ≥ 4 µM | IC50 ([10]; Homo sapiens, NCI-H1650, H1650, 6 μM osimertinib, read-out: IC50 of JKYN-1-mesylate in the presence of osimertinib): ~2 µM | IC50 ([10]; Homo sapiens, NCI-H1650, H1650, single agent, read-out: IC50): 3.95 µM | IC50 ([11]; Homo sapiens, single agent): 3.36 ± 0.37 µM | decrease of the IC50 value of enzalutamide ([11]; combination with enzalutamide): up to 30% | combination effect with enzalutamide ([11]; range of concentrations): synergistic effect | IC50 ([12]; Homo sapiens, MCF7, MCF-7, about 5 μM (or more) 4-OH-tamoxifen, read-out: IC50 of JKYN-1-mesylate in the presence of 4-OH-tamoxifen): ≤ 1.5 µM | IC50 ([12]; Homo sapiens, MCF7, MCF-7, single agent, read-out: IC50): 4.36 ± 0.42 µM | decrease of the IC50 value of 4-OH-tamoxifen ([12]; MCF-7, combination with 4-OH-tamoxifen): up to 80% | combination effect with 4-OH-tamoxifen ([12]; MCF-7, range of concentrations): synergistic effect | IC50 ([12]; MCF-7, single agent, Mesylate Salt, read-out: IC50): 4 to 5 µM | combination effect with regorafenib ([13]; N87): synergistic effect | decrease of the IC50 value of regorafenib ([13]; N87, combination with regorafenib): up to 54% | IC50 ([13]; N87, single agent): 2.21 ± 1.13 µM | IC50 ([6]; Homo sapiens, PANC-1, single agent): 4.69 ± 1.14 µM | combination effect with afatinib ([6]; PANC-1, combination with afatinib): positive (synergistic) effect | inhibition of proliferation compared with IBR120 ([6]; PANC-1, single agent): superior activity | IC50 [14]: 5.66 ± 0.36 µM | effect on inhibition by regorafenib ([7]; combination with regorafenib): potentiates regorafenib | IC50 ([7]; single agent): 3.96 ± 0.44 µM | inhibition of proliferation compared with IBR120 ([7]; single agent): superior activity | effect on inhibition by enzalutamide ([15]; DU145, combination with enzalutamide): enhanced enzalutamide toxicity | combination effect with enzalutamide ([15]; DU145, range of concentrations): synergistic effect

O=S(=O)(Cc1ccccc1)N1Cc2ccccc2[C@@H]1c1c[nH]c2ccccc12 [IBR120]
appearance of the 1 mM solution in H2O/DMSO [1]: a little bit cloudy | solution of 25 mg/ml in 100% DMSO ([1]; 25 mg/ml, 100% DMSO): dissolves well | solubility in DMSO [1]: at least 20 mM and ≥ 7.77 mg/ml | appearance of the 1 mM H2O/DMSO solution diluted 1:10 or more in water [1]: clear | solubility in water ([1]; water): insoluble in water | aqueous solubility (background statement) [8]: low aqueous solubility
